# Source: patent publication US20100022018A1 (priority 2006, published 2010)
# Where two headings read alike, the source gives them in different places.
# Key:
# Type in all cases: biochemical
# [1] = molecular target: T1, papain inactivated by methyl methanethiolsulfonate (Carica papaya, UniProt P00784)
# T1 construct: purchased Sigma Chemical Company (St. Louis, Mo.)
# T1 sequence (P00784 134-345): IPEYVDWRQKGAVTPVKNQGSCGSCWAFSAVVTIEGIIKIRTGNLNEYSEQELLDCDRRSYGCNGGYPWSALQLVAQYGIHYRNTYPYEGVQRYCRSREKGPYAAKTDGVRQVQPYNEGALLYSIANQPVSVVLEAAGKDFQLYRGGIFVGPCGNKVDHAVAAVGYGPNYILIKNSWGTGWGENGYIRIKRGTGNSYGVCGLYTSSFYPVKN
# papain [2] = molecular target: T2, papain (Carica papaya, UniProt P00784); experiment: Background activity of papain inactivated by disulfide-forming reagents; conditions: compared with papain inactivated with methyl methanethiolsulfonate
# T2 construct: purchased Sigma Chemical Company (St. Louis, Mo.)
# T2 sequence (P00784 134-345): T1 sequence (P00784 134-345)
# papain [3] = molecular target: T2, papain; experiment: Inactivation of activated papain by metal salts; conditions: metal salt added to equal 1.1× the molar amount of papain
# From the text: Papain was activated as described above, and the DTT was removed by gel filtration using G-25. Papain was then inactivated by adding a slight molar excess of a mono, di, tri, or tetra valent metal. […] The inhibition by the metals was essentially instantaneous.
# This papain was used to assay H2S as follows.
# [4] = molecular target: T3, papain inactivated by 2,2′-dithiobis-pyridine (Carica papaya, UniProt P00784)
# T3 construct: purchased Sigma Chemical Company (St. Louis, Mo.)
# T3 sequence (P00784 134-345): T1 sequence (P00784 134-345)
# [5] = molecular target: T4, papain inactivated by 4,4′-dithiobis-pyridine (Carica papaya, UniProt P00784)
# T4 construct: purchased Sigma Chemical Company (St. Louis, Mo.)
# T4 sequence (P00784 134-345): T1 sequence (P00784 134-345)
# [6] = 50 pmoles of DTT added, turnover of 600/min
# [7] = compared with papain inhibited by methyl methanethiolsulfonate
molecule,measurement,setting,value
"O[C@H](CS)[C@H](O)CS (racemic) [DTT, dithiothreitol]",rate of appearance of p-nitroanaline,[1],0.00026 M/min
same,amount of active papain in 200 μl,[1]; [6],72 pmol
same,concentration of active papain needed to generate product at this rate,[1]; [6],360 nM
same,Δ A410/min,"[1]; 10 picomoles of DTT added, 1 minute incubation at 25° C., Tris pH 8.0",0.52 min⁻¹
same,Δ A410/min,"[1]; 20 picomoles of DTT added, 1 minute incubation at 25° C., Tris pH 8.0",0.96 min⁻¹
same,Δ A410/min,"[1]; 50 picomoles of DTT added, 1 minute incubation at 25° C., Tris pH 8.0",1.9 min⁻¹
"c1ccc(SSc2ccccn2)nc1 [2,2′-dithiobis-pyridine]",background level of activity exhibited by the inactivated papain,papain [2],higher than papain inactivated with methyl methanethiolsulfonate
"c1cc(SSc2ccncc2)ccn1 [4,4′-dithiobis-pyridine]",background level of activity exhibited by the inactivated papain,papain [2],higher than papain inactivated with methyl methanethiolsulfonate
O=[N+]([O-])[O-].[Ag+] [AgNO3],inhibition of the activity of the activated papain,papain [3],> 99.5%
"N[C@@H](CS)C(=O)O [Cysteine, cysteine]",efficiency of reactivation of inactivated papain,[4]; [7],somewhat more efficient
same,Δ A410/min,"[1]; 20 picomoles added, 1 min incubation",0.45 min⁻¹
same,Δ A410/min,"[1]; 50 picomoles added, 1 min incubation",1.1 min⁻¹
same,molecules of papain activated for each molecule of activator,[1]; disulfide linkage inactivated papain,< 1
same,efficiency of reactivation of inactivated papain,[5]; [7],somewhat more efficient
[Cl][Hg][Cl] [HgCl2],inhibition of the activity of the activated papain,papain [3],> 99.9%
sodium sulfide,efficiency of reactivation of inactivated papain,[4],somewhat more efficient
same,molecules of activator for every one molecule of papain activated,[1],~5
same,efficiency of reactivation of inactivated papain,[5],somewhat more efficient
